Data: patent US12239661B2, “Methods and compositions for treating undesired implanted tissue filler” (priority 2019, dated 2025)

Tests used:
[1] = Quantitative histomorphometric analysis of injection sites (Example 1); assay type: in vivo, Swine (Sus scrofa domesticus); settings: injected area, day 7, mean
Procedure: Histomorphometric analysis was conducted on the 31 sections. Each section was analyzed with a color image analyzing system (Tribvn, France, CALOPIX version 3.2.0) to perform a semi-automatic analysis.
A Test Area was defined in a limited area where the print of the granules of the associated material was clear. This area was defined to evaluate the average area and diameter of each microsphere. A Test Area had to contain between 100 and 300 clearly defined granules to be considered as representative. FIG. 2 illustrates a Test Area in a section.
The injected area was the entire area where material was detected on the slide. The Test Area was part of the injected area.
Quantitative measurements were performed either in the Test Area or in the entire injected area. […]
Implant Area (μm^2) (Test Area): the surface area of granules measured in the Test Area (including any Lacunae Area).
Implant Area (mm^2) (Injected Area): the surface of granules was measured in the entire injected area (including any Lacunae Area). […]
Lacunae Area (mm^2) (Injected Area): the surface of the “Lacunae” Area was measured as defined by the optically empty spaces corresponding to merged granules (no distinct limits between several granules).

[2] = Electron microscopy (SEM) of filler particles isolated from test sites (Example 1)
Procedure: EM analysis is used, for example, to analyze morphology and the particle size distribution of Calcium Hydroxyapatite (CaHA) particles in tissue integrated particles. […] The biopsy material underwent an enzymatic digestion with protease (Trypsin without EDTA, for […], at 37° C.) after fixation in 10% neutral buffered formalin (NBF). Digested sample was centrifuged, and microscopy samples of the supernatant as well as the pellet were prepared and subjected to EM analysis at room temperature.
Samples were analyzed using a Scanning Electron Microscope (SEM) (Phenom Pure G3, ThermoFisher, with Phenom Pro Suite application system, ImageJ (version 1.51j8) software and OriginPro 2018G (64-bit) SR1 b9.5.1.195 software for analysis and data processing). To evaluate the changes in CaHA microparticle characteristics the samples were analyzed with the Scanning Electron Microscopy (SEM) and evaluated for morphology as well as for the size and shape of the material. Statistical analysis of particle size distribution (PSD) would show changes of the material.
SEM images were taken from three fractions per sample to determine the particle- and volume-weighted size distributions. Up to 400 SEM images per fraction were taken at a magnification of ×500 and further processed by automated image analyzing software ImageJ (version 1.51j8). Image processing took place for every fraction image to determine selected parameters. e.g., Feret diameter and aspect ratio (D-ratio).

[3] = In vivo CT of filler nodule volume, density and 3D shape after test solutions 0-8 (Example 3)
Procedure: One hour after filler injections (T=1 h), 1.5 mL of selected solutions (Table 5, solutions 0-8, test items, solution 0 is normal saline and not hyperosmotic) were injected each into 9 dermal filler nodules in the right flank (ventral area).
A total of 7 CT-scans were performed at 1 h 15, 2 h, 4 h, 1 day (24 h), 3, 7 and 14 days after injection of the dermal filler. The clinical state of each animal is assessed once a week by body weight measurement and clinical observations.
The 10 SC injections of dermal filler on Day 0 were performed in the ventral area, (five nodules on each flank of the ventral area) for each pig. For each SC nodule, a theoretical volume of 500 μl was administered. One hour (±5 min) after injection of dermal filler, SC injection of the different solutions (prepared the day before) were performed into nine (9) nodules of dermal. For each SC nodule, a theoretical volume of 1.5 mL of test solution was administered.
The X-ray computed tomography acquisitions were performed with the Computed Tomography Scanner BrightSpeed 16 (General Electric). In order to measure the volume and the mean density and to visualize the 3D shape of the dermal filler (Radiesse® filler with or without test solution) injected, in vivo CT-scans were performed on Day 0: 1 h 15 (±10 min), 2 h (±15 min) and 4 h (±20 min), on Day 1 (24 h+1 h), Day 3, Day 7 and Day 14.
During CT acquisition on Day 0, the pigs received an IM injection of anesthesia. The animals were maintained under anesthesia until the CT acquisition at T=2 h (2 h after dermal filler injection session). Between these CT acquisitions, the animals were under surveillance in the recovery room on a heating mat with fluidotherapy. At the end of the CT acquisition at T=2 h, the pigs received a tattoo around each injected site. During the CT acquisitions at T=4 h and on Days 1, 3, 7 and 14, pigs received an IM injection of anesthesia. For the CT-scans, animals were positioned in dorsal recumbency and acquisitions were centered on the injection sites. The parameters of the CT-scan are described in Table 5.
The CT acquisition was analyzed with the software Avizo version 9.2.0. The objective of this analysis was to assess the degradation over time of the dermal filler injected by SC route after injection of different test solutions.
An image segmentation processing was performed on each CT acquisition. First, a manual pre-segmentation was performed around each nodule in order to roughly isolate the voxels corresponding to dermal filler product, which defined a Region of Interest (ROI). Second, an automatic segmentation was applied on the previously defined ROI using a global grey level thresholding procedure.
On day 0, a farm pig received ten (10) SC injections of Radiesse® dermal filler 0.5 mL (ventral area) (10 nodules in total). One hour after filler injections (T=1 h), 1.5 mL of one of eight test hyperosmotic solutions (1-8 solutions, Table 5) was injected at an injection site. One injection site was untreated and one injection site was treated with normal saline (0.9% wt/v NaCl).

[4] = Semi-quantitative histopathologic analysis of injection sites (Example 1); settings: mean score, day 7
Procedure: After complete fixation in 10% NBF and micro-CT analysis, the 30 test sites and the TO site, were cut into five blocks. The blocks were decalcified for 48 hours with formic acid and then dehydrated in alcohol solutions of increasing concentration, cleared in xylene and embedded in paraffin. […] Finally, the blocks were placed in HCl for 15 min and the blocks could then be cut to obtain slides for analysis.
The section was stained with safranin-hematoxylin-cosin (SHE). The same procedure was used for the preparation of the TO site used for structural characterization and evaluation of the degradation.
Qualitative and semi-quantitative histopathologic evaluation of the local tissue effects and the inflammatory response at injection sites was conducted according using standard methods.
Evaluation of local tissue effects was based on the qualitative and semi-quantitative histopathologic evaluation: mean score comparison of the semi-quantitative parameters and comparison of the qualitative histopathologic findings.

[5] = particle size distribution by EM, day 7
[6] = Example 3, mean, listed as Normal Saline (sol 0)

[Cl-].[Na+] [sol 0, Sodium chloride]
Implant area [1]: 19.2 mm^2
particle degradation (change in particle size or surfaces) by EM ([2]; day 7): no indication of particle degradation
Mean diameter ([2]; filler particles by EM, seven days after filler injection): 28.8 μm
25-45 μm [2, 5]: 93.2 wt %
<25 μm [2, 5]: 1.4 wt %
>45 μm [2, 5]: 5.4 wt %
D-ratio ([2]; shape index, 1=round, EM, day 7): 0.8
Change in Volume as percent of Injected Volume, Day 14/15 ([3]; Example 3 (Day 14), mean, listed as Normal Saline (sol 0)): 187.72%
Change in Volume as percent of Injected Volume, Day 0 + 1 h 15 ([3]; Example 3, mean, 1.5 mL solution into 500 μl nodule, listed as Normal Saline (sol 0)): 155.02%
Change in Volume as percent of Injected Volume, Day 0 + 2 h [3, 6]: 159.42%
Change in Volume as percent of Injected Volume, Day 0 + 4 h [3, 6]: 182.97%
Change in Volume as percent of Injected Volume, Day 1 [3, 6]: 209.66%
Change in Volume as percent of Injected Volume, Day 3 [3, 6]: 215.48%
Change in Volume as percent of Injected Volume, Day 7 [3, 6]: 212.85%
effect on volume at the filler injection site ([3]; after 7 and 14 days, vs untreated, listed as normal saline): does not produce significant decreased volume
AM Degradation [4]: 1.0
Cell or Tissue Degeneration [4]: 0.0
Encapsulation [4]: 0.0
Fatty Infiltrate [4]: 0.0
Fibrin [4]: 1.7
Fibroblasts [4]: 2.0
Fibrosis [4]: 0.0
Giant Cells [4]: 2.0
Hemorrhage [4]: 1.1
Lymphocytes [4]: 1.3
Macrophages [4]: 2.4
Necrosis [4]: 0.1
Neovascularization [4]: 1.0
Plasma Cells [4]: 0.0
Polymorphonuclear Cells [4]: 1.0
Tissue Ingrowth [4]: 2.5
Tissue Integration [4]: 2.5
